Results on 3 compounds are retold here after article PMC10845145, “Synergistic Effect of Brevetoxin BTX-3 and Ciguatoxin CTX3C in Human Voltage-Gated Nav1.6 Sodium Channels” (Chemical Research in Toxicology, 2023).

Experiment [1] addresses T1, human Nav1.6 voltage-gated sodium channels (Homo sapiens, UniProt Q9UQD0).
T1 construct: host or cells: HEK293
Description: Whole-cell patch-clamp recording of fast inactivation of sodium channels in HEK293 cells transfected with Nav1.6. The experiment is classed as cell-based. To be noted: for IC50: read-out: IC50, hyperpolarizing shift in the inactivation voltage. The protocol:
(§1) The human embryonic kidney cell line (HEK293) transfected with the α subunit of the Nav1.6 sodium channel isoform was kindly provided, under a material transfer agreement, by GlaxoSmithKline R&D (Stevenage, U.K). The cells were cultured in Dulbecco’s modified Eagle’s medium (DMEM)/F12 medium enriched with glutamax, nonessential amino acid solution (MEM, Gibco, 1% w/v), 10% fetal bovine serum, and 0.4 mg/mL Geneticin (G418, Gibco) and maintained at 37 °C in a humidified 95% […]/5% CO2 atmosphere until they reached 80% of confluence, replacing the medium every 2 days. The cells were subcultured in 12-well plates in glass coverslips at a density of 60,000 cells/mL. Twenty-four or 48 h before electrophysiological recordings, the cells were placed at 30 °C to maximize sodium channel expression.[32]
(§2) For electrophysiological recordings, glass coverslips with cells were placed in a recording chamber with 0.5 mL Lockés buffer as the extracellular solution. Recording electrodes were fabricated with borosilicate glass microcapillaries (1.5 outer diameter) and had resistances ranging from 4 to 10 MΩ. Pipettes were filled with an intracellular solution containing 120 mM CsF, 10 mM EGTA, 10 mM HEPES, and 15 mM NaCl and pH adjusted to 7.25 with CsOH. Voltage-gated sodium currents were recorded at room temperature 5 min after reaching the whole-cell configuration with a Multiclamp 700B amplifier and digitalized with the Digidata 1440A (both from Axon Instruments, California, U.S.A.) maintaining the cells at a holding potential (Vhold) of −55 mV. Signals were sampled at 50 kHz after low-pass Bessel filtering at 10 kHz. Compensation circuitry was used to reduce the series resistance by at least 70%. To record the activation of VGSCs, voltage steps from −80 to +80 mV in 10 mV step increments were applied prior to a test pulse of −90 mV. Fast inactivation was measured at 0 mV after prior test pulses of 300 ms duration ranging from −100 to 0 mV in 10 mV voltage step increments after maintaining the holding potential at −90 mV during 10 ms.
(§3) All data are expressed as means ± SEMs of n determinations. Data analysis was performed using GraphPad Prism 8. Statistical comparisons were performed using one-way analysis of variance (ANOVA), followed by post hoc Dunnett̀s tests. p values ≤ 0.05 were considered statistically significant, and IC50 values were determined by fitting the data with a log (inhibitor) vs normalized response model.
(§4) The combination index (CI) was calculated with the Chou–Talalay equation[33] following the formula [drawing 1] 1 where (DX)1 is the IC50 value of CTX3C alone, (DX)2 the IC50 value of BTX-3 alone, and D1 and D2 are the IC50 values of CTX3C and BTX-3, respectively, in combination. According to the Chou–Talalay method, additivity is established if CI = 1, synergism if CI < 1, and antagonism if CI > 1.
(In general: In patch-clamp work, channel activity is measured electrically.)

In experiment [2] the target is rat brain sodium channels. Particulars: cited from earlier work; for Ki: binding affinity to rat brain sodium channels, read-out: inhibitory constant (ki).
Experiment [3] concerns the target T1, human Nav1.6 voltage-gated sodium channels. Description: Whole-cell patch-clamp recording of sodium current activation (peak INa, activation voltage) in HEK293 cells transfected with Nav1.6. The class given is cell-based. To be noted: for +10 nM BTX-3 normalized INa (max) / normalized INa (max): control = –1; for normalized INa (max): CTX3C alone; for shift in the activation voltage for CTX3C: vs control. How it is done: as §1, §2, §3, §4

The structures appear in SMILES notation. Where two headings read alike, the source gives them in different places.

T1 sequence (Q9UQD0 whole entry): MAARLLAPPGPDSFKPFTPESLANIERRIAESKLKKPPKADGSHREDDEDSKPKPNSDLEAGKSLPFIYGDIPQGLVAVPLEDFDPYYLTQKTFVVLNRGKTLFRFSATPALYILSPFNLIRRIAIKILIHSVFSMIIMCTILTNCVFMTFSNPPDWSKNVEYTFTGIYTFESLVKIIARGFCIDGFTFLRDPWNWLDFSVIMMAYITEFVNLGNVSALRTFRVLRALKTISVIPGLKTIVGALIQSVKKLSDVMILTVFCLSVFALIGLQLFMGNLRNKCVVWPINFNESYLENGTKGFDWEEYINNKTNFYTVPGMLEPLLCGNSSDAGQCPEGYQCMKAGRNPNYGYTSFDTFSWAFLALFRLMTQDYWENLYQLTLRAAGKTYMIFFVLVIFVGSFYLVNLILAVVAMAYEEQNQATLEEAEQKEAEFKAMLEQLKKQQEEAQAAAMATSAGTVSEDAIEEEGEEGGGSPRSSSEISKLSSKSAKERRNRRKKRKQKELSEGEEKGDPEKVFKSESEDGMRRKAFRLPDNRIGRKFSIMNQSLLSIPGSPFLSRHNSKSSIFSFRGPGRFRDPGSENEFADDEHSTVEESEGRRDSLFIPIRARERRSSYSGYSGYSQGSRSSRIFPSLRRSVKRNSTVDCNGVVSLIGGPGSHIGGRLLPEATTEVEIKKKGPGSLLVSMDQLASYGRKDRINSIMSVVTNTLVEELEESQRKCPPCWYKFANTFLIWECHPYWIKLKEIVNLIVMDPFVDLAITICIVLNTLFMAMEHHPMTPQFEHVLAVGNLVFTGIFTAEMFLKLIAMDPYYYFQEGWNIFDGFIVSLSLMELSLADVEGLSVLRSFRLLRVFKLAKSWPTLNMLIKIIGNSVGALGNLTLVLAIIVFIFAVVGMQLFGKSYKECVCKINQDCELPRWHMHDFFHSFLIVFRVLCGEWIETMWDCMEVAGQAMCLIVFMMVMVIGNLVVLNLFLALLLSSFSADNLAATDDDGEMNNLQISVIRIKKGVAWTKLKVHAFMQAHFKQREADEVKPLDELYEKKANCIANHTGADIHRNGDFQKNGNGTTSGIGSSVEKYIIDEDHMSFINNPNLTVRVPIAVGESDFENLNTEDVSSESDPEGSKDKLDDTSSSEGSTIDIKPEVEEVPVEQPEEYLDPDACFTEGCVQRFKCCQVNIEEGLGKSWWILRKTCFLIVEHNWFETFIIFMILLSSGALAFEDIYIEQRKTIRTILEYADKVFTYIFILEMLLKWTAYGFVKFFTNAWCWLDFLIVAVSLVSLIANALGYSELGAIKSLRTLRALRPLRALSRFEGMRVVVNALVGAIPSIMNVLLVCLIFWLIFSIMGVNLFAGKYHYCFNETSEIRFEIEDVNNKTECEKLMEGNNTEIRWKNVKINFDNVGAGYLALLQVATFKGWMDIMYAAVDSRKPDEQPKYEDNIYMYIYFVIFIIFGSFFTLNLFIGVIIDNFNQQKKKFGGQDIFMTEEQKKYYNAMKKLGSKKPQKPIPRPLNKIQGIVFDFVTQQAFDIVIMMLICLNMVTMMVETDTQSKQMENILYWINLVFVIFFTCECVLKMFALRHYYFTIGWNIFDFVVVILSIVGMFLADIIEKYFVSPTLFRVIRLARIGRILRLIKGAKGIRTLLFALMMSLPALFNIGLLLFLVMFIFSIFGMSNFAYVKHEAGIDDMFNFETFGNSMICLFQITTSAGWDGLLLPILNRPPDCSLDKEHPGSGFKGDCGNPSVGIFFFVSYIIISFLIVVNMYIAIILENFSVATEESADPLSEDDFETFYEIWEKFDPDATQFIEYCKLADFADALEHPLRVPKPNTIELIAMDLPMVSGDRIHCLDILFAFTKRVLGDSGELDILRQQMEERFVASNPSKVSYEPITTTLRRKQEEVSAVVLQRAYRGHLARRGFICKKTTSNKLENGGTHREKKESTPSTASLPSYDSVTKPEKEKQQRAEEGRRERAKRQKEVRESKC

The Ki is the dissociation constant of the complex between target and ligand, obtained from inhibition or displacement. Regarding `CC1CC2OC3C(CC2OC2CC4OC5CC=CCC6OC7C=CC8OC9C(CC8OC7CC=CC6OC5CC(O)C4(C)OC2C1)OC1CC=CCOC1C9O)OC1C(C)C(C)C2(CCCO2)OC1C(O)C3C` (stereo not shown) [CTX3C, ciguatoxin 3C], the “inactivation voltage for CTX3C (V1/2)” value is reported as “–50.1 ± 4.1 mV” in experiment [1] ([CTX3C] 0.001 nM), “–47.4 ± 1.4 mV” in experiment [1] ([CTX3C] 0.01 nM), “–53.4 ± 6.8 mV” in experiment [1] ([CTX3C] 0.1 nM) and “–54.9 ± 5 mV” in experiment [1] ([CTX3C] 1 nM). Further, the IC50 came to 306 nM in experiment [1] (single toxin alone); 2.58 nM in experiment [3] (single toxin alone, read-out: IC50, negative shift in the activation voltage); 0.173 nM in experiment [3] (single toxin alone, read-out: IC50, percent inhibition of the peak inward sodium currents (INa)). Also, the Ki in experiment [2] was 0.47 nM. In addition, the “higher affinity than that of BTX-3s” value in experiment [2] (binding to VGSC, at concentrations of 1 nM of the compounds) is listed as 20 fold. For the same compound, the “agonist profile on the channels (negative displacement in the activation voltage)” value in experiment [3] was “full agonist”. The “effect on maximum INa peak” value in experiment [3] (0.17 nM CTX3C) is listed as “a decrease of the maximum INa peak was elicited”. Moreover, the “effect on the activation voltage” value in experiment [3] (0.17 nM CTX3C alone) was “no changes in the activation voltage were observed”. Moreover, the “+10 nM BTX-3 normalized INa (max)” value is listed as “–0.89 ± 0.08” in experiment [3] (CTX3C 0.0001 nM in the presence of 10 nM BTX-3); “–0.89 ± 0.13” in experiment [3] (CTX3C 0.001 nM in the presence of 10 nM BTX-3); “–0.88 ± 0.13” in experiment [3] (CTX3C 0.01 nM in the presence of 10 nM BTX-3); “–0.90 ± 0.11” in experiment [3] (CTX3C 0.1 nM in the presence of 10 nM BTX-3); “–0.68 ± 0.09” in experiment [3] (CTX3C 1 nM in the presence of 10 nM BTX-3); “–0.46 ± 0.09” in experiment [3] (CTX3C 5 nM in the presence of 10 nM BTX-3). The “normalized INa (max)” value in experiment [3] (0.0001 nM) is recorded as “–0.79 ± 0.05”; in experiment [3] (0.001 nM) it was “–0.62 ± 0.08”; in experiment [3] (0.01 nM), “–0.66 ± 0.09”; in experiment [3] (0.1 nM), “–0.63 ± 0.09”; in experiment [3] (1 nM), “–0.27 ± 0.07”; in experiment [3] (5 nM), “–0.32 ± 0.04”. Besides, the “activation voltage for CTX3C” value is on record as “–30.0 ± 0 mV” in experiment [3] ([CTX3C] 0.0001 nM); “–30.0 ± 0 mV” in experiment [3] ([CTX3C] 0.001 nM); “–33.3 ± 3.3 mV” in experiment [3] ([CTX3C] 0.01 nM); “–39.0 ± 1.8 mV” in experiment [3] ([CTX3C] 0.1 nM); “–46.7 ± 2.9 mV” in experiment [3] ([CTX3C] 1 nM); “–51.67 ± 4.8 mV” in experiment [3] ([CTX3C] 5 nM). In addition, the “shift in the activation voltage for CTX3C” value in experiment [3] ([CTX3C] 0.0001 nM) was 0.71 ± 5.4 mV; in experiment [3] ([CTX3C] 0.01 nM), “–2.62 ± 5.6 mV”; in experiment [3] ([CTX3C] 0.1 nM), “–8.29 ± 3.3 mV”; in experiment [3] ([CTX3C] 5 nM), “–20.95 ± 4.8 mV”. In experiment [3] (after bath application of 1 nM CTX3C, control −1156 ± 189 pA), the “peak sodium current at −10 mV” value was −692 ± 372 pA. Further, the “increased potency on the activation voltage after combination” value in experiment [3] (combination of CTX3C and BTX-3 vs each alone) is given as 10 times.
As for `C=C(CO)CC1CC(O)C2(C)OC3CC4OC5CC6(C)OC7(C)CCC8OC9CC%10(C)OC%11C(C)=CC(=O)OC%11CC%10OC9CC(C)C8OC7CC6OC5(C)C/C=C\C4OC3CC2O1` (stereo not shown) [BTX-3, brevetoxin 3], the IC50 in experiment [1] worked out at 4700 nM. In experiment [3], the “agonist profile on the channels (negative displacement in the activation voltage)” value is reported as “partial agonist”, the “decrease in the maximum INa at −20 mV” value was 21.9 ± 10.9%, the “decrease of peak sodium current amplitude” value amounted to 31.2 ± 15% and the “increased potency on the activation voltage after combination” value turned out to be 10 times. Besides, in experiment [3], the “maximum INa at −20 mV” value was −2887.70 ± 402.0 pA. Moreover, the IC50 in experiment [3] (read-out: IC50, negative shift in the activation voltage) stood at 46.2 nM. The IC50 in experiment [3] (read-out: IC50, percent inhibition of the peak inward sodium currents (INa)) was determined as 202 nM.
In the case of `C[C@@H]1C[C@@H]2O[C@@H]3[C@@H](C)[C@H](O)[C@@H]4O[C@]5(C[C@H](O)CO5)[C@@H](C)[C@H](C)[C@H]4O[C@H]3C[C@H]2O[C@H]2C[C@H]3O[C@H]4C/C=C\C[C@H]5O[C@H]6C=C[C@H]7O[C@H]8[C@H](O)[C@H]9O[C@@H](/C=C/[C@H](O)CO)C=CC[C@@H]9O[C@@H]8C[C@@H]7O[C@@H]6C=C[C@@H]5O[C@@H]4C[C@@H](O)[C@]3(C)O[C@@H]2C1` [ciguatoxin-1B], in experiment [2], the inhibition constant (Ki) is 0.041 nM. Moreover, the “ki difference relative to BTX-1” value in experiment [2] (ciguatoxin-1B vs BTX-1) was “more than 50 fold”.
